# Experimental data taken from patent publication US4208514A, “4(3H)-Oxobenzo-2,1,3-thiadiazine-2,2-dioxides” (The Dow Chemical Company, priority 1976, dated 1980).
# What was measured:
# Assay type in all cases: in vivo
# Velvet Leaf [1] = test: Selective post-emergent greenhouse test, Velvet Leaf; settings: post-emergence, 336 h, 2 weeks; for pest or weed control at 358.672 g/ha: 0.32 lbs/acre; for pest or weed control at 706.135 g/ha: 0.63 lbs/acre
# From the text: (§1) So as to illustrate clearly the phytotoxic properties of the various active ingredients of the present invention, a group of controlled greenhouse experiments is described below.
# (§2) Various species of plants, both broadleaf weeds and valuable crops, were planted in beds of good agricultural soil in a greenhouse. After the plants had emerged and grown to a height of about 2-6 inches, a portion of the plants were sprayed with an aqueous mixture, made by mixing a selected active ingredient and emulsifier or dispersant with water to provide solution containing 250 or 125 ppm active ingredient, employing sufficient amounts of the treating composition to provide low post emergent application rates of about 0.63 or 0.32 pounds per acre. Other portions of the plants were left untreated to serve as controls. In each test the active ingredient was a 3-methylethyl-1H-2,1,3-benzothiadiazin-4(3H)-one-2,2-dioxide having a substituent in the one position according to the invention.
# (§3) After a period of 2 weeks the selective effect of the test ingredient on the plants was evaluated by a comparison with the control group of plants.
# Jimson Weed = test: Selective post-emergent greenhouse test, Jimson Weed; settings: post-emergence, 336 h, 2 weeks; for pest or weed control at 358.672 g/ha: 0.32 lbs/acre; for pest or weed control at 706.135 g/ha: 0.63 lbs/acre
# From the text: as §1, §2, §3
# Cotton = test: Selective post-emergent greenhouse test, Cotton (crop injury); settings: Gossypium hirsutum, post-emergence, 336 h, post-emergent, 2 weeks, crop, read-out: % Control Cotton; for plant injury at 358.672 g/ha: 0.32 lbs/acre; for plant injury at 706.135 g/ha: 0.63 lbs/acre
# From the text: as §1, §2, §3
# Soybean = test: Selective post-emergent greenhouse test, Soybean (crop injury); settings: Glycine max, post-emergence, 336 h, 2 weeks, read-out: % Control Soybean; for plant injury at 358.672 g/ha: 0.32 lbs/acre; for plant injury at 706.135 g/ha: 0.63 lbs/acre
# From the text: as §1, §2, §3
# Velvet Leaf [2] = test: General post-emergent herbicidal activity at 10 lbs/acre, Velvet Leaf; settings: post-emergence, 336 h
# From the text: as §2, with “[…], […]” for “emulsifier or dispersant with water to provide solution containing 250 or 125 ppm active ingredient, employing sufficient amounts of the treating composition to provide low post emergent application rates of about 0.63 or 0.32 pounds per acre.”
# as §3
# Annual Morning Glory = test: General post-emergent herbicidal activity at 10 lbs/acre, Annual Morning Glory; settings: Ipomoea, post-emergence, 336 h
# From the text: as §2, with “[…], […]” for “emulsifier or dispersant with water to provide solution containing 250 or 125 ppm active ingredient, employing sufficient amounts of the treating composition to provide low post emergent application rates of about 0.63 or 0.32 pounds per acre.”
# as §3
# Nutsedge = test: General post-emergent herbicidal activity at 10 lbs/acre, Nutsedge; settings: Cyperus, post-emergence, 336 h
# From the text: as §2, with “[…], […]” for “emulsifier or dispersant with water to provide solution containing 250 or 125 ppm active ingredient, employing sufficient amounts of the treating composition to provide low post emergent application rates of about 0.63 or 0.32 pounds per acre.”
# as §3
SMILES,pest or weed control at 358.672 g/ha (Velvet Leaf [1]),pest or weed control at 706.135 g/ha (Velvet Leaf [1]),pest or weed control at 358.672 g/ha (Jimson Weed),pest or weed control at 706.135 g/ha (Jimson Weed),plant injury at 358.672 g/ha (Cotton),plant injury at 706.135 g/ha (Cotton),plant injury at 358.672 g/ha (Soybean),plant injury at 706.135 g/ha (Soybean),pest or weed control at 11208.5 g/ha (Velvet Leaf [2]),pest or weed control at 11208.5 g/ha (Annual Morning Glory),pest or weed control at 11208.5 g/ha (Nutsedge)
"CC(C)COC(=O)N1c2ccccc2C(=O)N(C(C)C)S1(=O)=O [CO2 CH2 CH(CH3)2, 1H-2,1,3-Benzothiadiazine-1-carboxylic Acid: 3,4-Dihydro-3-(1-methylethyl)-4-oxo-, 2-Methylpropyl Ester, 2,2-Dioxide]",100%,100%,100%,100%,0%,0%,10%,10%,,,
"CC(C)C(=O)N1c2ccccc2C(=O)N(C(C)C)S1(=O)=O [COCH(CH3)2, 1H-2,1,3-Benzothiadiazin-4 (3H)-one:3-(1-methylethyl)-1-(2- -methyl-1-oxopropyl)-2,2-dioxide]",,,,,,,,,100%,100%,95%
"CC(C)N1C(=O)c2ccccc2N(S(=O)(=O)N(C)C)S1(=O)=O [SO2 N(CH3)2, 1H-2,1,3-Benzothiadiazin-4-(3H)-one; 1-Dimethylsulfamoyl-3-(1-methylethyl)-2,2-dioxide]",70%,50%,,100%,5%,70%,0%,0%,,,
CCN(CC)C(=O)N1c2ccccc2C(=O)N(C(C)C)S1(=O)=O [CON(C2 H5)2],0%,20%,100%,100%,10%,90%,0%,0%,,,
"CCC(=O)N1c2ccccc2C(=O)N(C(C)C)S1(=O)=O [COC2 H5, 1H-2,1,3-Benzothiadiazin-4(3H)-one: 3-(1-methylethyl)-1-(1-oxopropyl)-; 2,2-dioxide]",100%,100%,,,0%,100%,0%,0%,,,
COC(=O)CCC(=O)N1c2ccccc2C(=O)N(C(C)C)S1(=O)=O [drawing 13],70%,100%,100%,100%,0%,60%,0%,0%,,,
"CC(C)N1C(=O)c2ccccc2N(C(=O)N(C)C)S1(=O)=O [CON(CH3)2, 1H-2,1,3-Benzothiadiazine-1-carboxamide: N,N-Dimethyl-3,4-dihydro-3-(1-methylethyl)-4-oxo-, 2,2-dioxide]",40%,95%,100%,100%,,40%,0%,0%,,,
CCC(C)OC(=O)N1c2ccccc2C(=O)N(C(C)C)S1(=O)=O (centres unmarked),100%,100%,100%,100%,30%,30%,0%,0%,,,
"CC(C)N1C(=O)c2ccccc2N(C(=O)CC(C)(C)C)S1(=O)=O [COCH2 C(CH3)3, 1H-2,1,3-Benzothiadiazin-4(3H)-one: 1-(3,3-dimethyl-1-oxobutyl)-3-(1-methylethyl)-; 2,2-dioxide]",100%,100%,90%,100%,0%,0%,0%,0%,,,
CC(C)N1C(=O)c2ccccc2N(C(=O)c2ccccc2)S1(=O)=O,0%,0%,80%,80%,0%,0%,0%,0%,,,
